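Five compound concentrations were applied to cells in 96-well plates for 48 hours; endpoints were derived by simple linear interpolation of the resulting dose-response curve. The concentration for 50% growth inhibition is given as GI50.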 Active and inactive are the calls of the source. No stated cut-off is given here; in the data, active = GI50 up to about 1.1 µM and inactive = higher.
What was measured:
Assay in all cases: NCI tumour cell line growth inhibition, 48 h
[1] = tested on: SNB-19
[2] = tested on: UO-31
[3] = tested on: OVCAR-4
[4] = tested on: SNB-75
[5] = tested on: Hs-578T
[6] = tested on: TK-10
[7] = tested on: K562
[8] = tested on: NCI-H23
[9] = tested on: U-251
[10] = tested on: BT-549
[11] = tested on: CCRF-CEM
[12] = tested on: OVCAR-3
[13] = tested on: COLO 205
[14] = tested on: HOP-92
[15] = tested on: SK-MEL-2
[16] = tested on: OVCAR-8
[17] = tested on: A498
[18] = tested on: SF-295
[19] = tested on: HOP-62
[20] = tested on: SR
[21] = tested on: NCI-H460
[22] = tested on: UACC-257
[23] = tested on: CAKI-1
[24] = tested on: KM12
[25] = tested on: SF-539
[26] = tested on: SK-OV-3
[27] = tested on: MDA-MB-435
[28] = tested on: SK-MEL-5
[29] = tested on: MOLT-4
[30] = tested on: UACC-62
[31] = tested on: 786-0
[32] = tested on: DU-145
[33] = tested on: LOX IMVI
[34] = tested on: ACHN
[35] = tested on: HCC 2998
[36] = tested on: NCI/ADR-RES
[37] = tested on: SW-620
[38] = tested on: MCF7
[39] = tested on: MDA-MB-231
[40] = tested on: M14
[41] = tested on: HCT-116
[42] = tested on: MDA-N
[43] = tested on: RXF 393
[44] = tested on: OVCAR-5
[45] = tested on: HL-60
[46] = tested on: HCT-15
[47] = tested on: NCI-H522
[48] = tested on: SF-268
[49] = tested on: SN12C
[50] = tested on: PC-3
[51] = tested on: T47D
[52] = tested on: EKVX
[53] = tested on: Malme-3M
[54] = tested on: IGROV-1
[55] = tested on: NCI-H226
[56] = tested on: A549
[57] = tested on: SK-MEL-28
[58] = tested on: HT-29
[59] = tested on: RPMI-8226

CC1OC(O[C@H]2CC[C@]3(C)[C@H]4CC=C5[C@@H]6[C@@H](C)[C@H](C)CC[C@]6(C(=O)OC6OC(CO)C(O)C(O)C6O)CC[C@@]5(C(=O)O)[C@]4(C)CC[C@H]3C2(C)C)C(O)C(O)C1O (some centres undefined)
GI50 [1]: > 100 µM (inactive)
GI50 [2]: > 100 µM (inactive)
GI50 [3]: > 100 µM (inactive)
GI50 [4]: > 100 µM (inactive)
GI50 [5]: > 100 µM (inactive)
GI50 [6]: > 100 µM (inactive)
GI50 [7]: > 100 µM (inactive)
GI50 [8]: > 100 µM (inactive)
GI50 [9]: > 100 µM (inactive)
GI50 [10]: > 100 µM (inactive)
GI50 [11]: > 100 µM (inactive)
GI50 [12]: > 100 µM (inactive)
GI50 [13]: > 100 µM (inactive)
GI50 [14]: > 100 µM (inactive)
GI50 [15]: > 100 µM (inactive)
GI50 [16]: > 100 µM (inactive)
GI50 [17]: > 100 µM (inactive)
GI50 [18]: > 100 µM (inactive)
GI50 [19]: > 100 µM (inactive)
GI50 [20]: > 100 µM (inactive)
GI50 [21]: > 100 µM (inactive)
GI50 [22]: > 100 µM (inactive)
GI50 [23]: > 100 µM (inactive)
GI50 [24]: > 100 µM (inactive)
GI50 [25]: > 100 µM (inactive)
GI50 [26]: > 100 µM (inactive)
GI50 [27]: > 100 µM (inactive)
GI50 [28]: > 100 µM (inactive)
GI50 [29]: > 100 µM (inactive)
GI50 [30]: > 100 µM (inactive)
GI50 [31]: > 100 µM (inactive)
GI50 [32]: > 100 µM (inactive)
GI50 [33]: > 100 µM (inactive)
GI50 [34]: > 100 µM (inactive)
GI50 [35]: > 100 µM (inactive)
GI50 [36]: > 100 µM (inactive)
GI50 [37]: > 100 µM (inactive)
GI50 [38]: > 100 µM (inactive)
GI50 [39]: > 100 µM (inactive)
GI50 [40]: > 100 µM (inactive)
GI50 [41]: > 100 µM (inactive)
GI50 [42]: > 100 µM (inactive)
GI50 [43]: > 100 µM (inactive)
GI50 [44]: > 100 µM (inactive)
GI50 [45]: > 100 µM (inactive)
GI50 [46]: > 100 µM
GI50 [47]: > 100 µM (inactive)
GI50 [48]: > 100 µM (inactive)
GI50 [49]: > 100 µM (inactive)
GI50 [50]: > 100 µM (inactive)
GI50 [51]: > 100 µM (inactive)

O=S(=O)(O)c1ccc2cccc(/N=N\c3c(O)ccc4ccccc34)c2c1
GI50 [1]: > 100 µM (inactive)
GI50 [2]: > 100 µM (inactive)
GI50 [3]: > 100 µM (inactive)
GI50 [4]: > 100 µM (inactive)
GI50 [5]: > 100 µM (inactive)
GI50 [6]: > 100 µM (inactive)
GI50 [7]: > 100 µM (inactive)
GI50 [8]: > 100 µM (inactive)
GI50 [9]: > 100 µM (inactive)
GI50 [10]: > 100 µM (inactive)
GI50 [11]: > 100 µM (inactive)
GI50 [12]: > 100 µM (inactive)
GI50 [13]: > 100 µM (inactive)
GI50 [14]: > 100 µM (inactive)
GI50 [15]: > 100 µM (inactive)
GI50 [16]: > 100 µM (inactive)
GI50 [17]: > 100 µM (inactive)
GI50 [52]: > 100 µM (inactive)
GI50 [18]: > 100 µM (inactive)
GI50 [19]: > 100 µM (inactive)
GI50 [53]: > 100 µM (inactive)
GI50 [20]: > 100 µM (inactive)
GI50 [54]: > 100 µM (inactive)
GI50 [21]: > 100 µM (inactive)
GI50 [22]: > 100 µM (inactive)
GI50 [55]: > 100 µM (inactive)
GI50 [23]: > 100 µM (inactive)
GI50 [24]: > 100 µM (inactive)
GI50 [25]: > 100 µM (inactive)
GI50 [26]: > 100 µM (inactive)
GI50 [27]: > 100 µM (inactive)
GI50 [28]: > 100 µM (inactive)
GI50 [29]: > 100 µM (inactive)
GI50 [56]: > 100 µM (inactive)
GI50 [30]: > 100 µM (inactive)
GI50 [31]: > 100 µM (inactive)
GI50 [32]: > 100 µM (inactive)
GI50 [34]: > 100 µM (inactive)
GI50 [35]: > 100 µM (inactive)
GI50 [36]: > 100 µM (inactive)
GI50 [37]: > 100 µM (inactive)
GI50 [38]: > 100 µM (inactive)
GI50 [39]: > 100 µM (inactive)
GI50 [40]: > 100 µM (inactive)
GI50 [41]: > 100 µM (inactive)
GI50 [42]: > 100 µM (inactive)
GI50 [43]: > 100 µM (inactive)
GI50 [44]: > 100 µM (inactive)
GI50 [45]: > 100 µM (inactive)
GI50 [46]: > 100 µM
GI50 [47]: > 100 µM (inactive)
GI50 [48]: > 100 µM (inactive)
GI50 [49]: > 100 µM (inactive)
GI50 [50]: > 100 µM (inactive)
GI50 [51]: > 100 µM (inactive)

C=C1CC(Cn2ccc(=O)[nH]c2=O)(c2ccc(OC)cc2)OC1=O (centres undefined)
GI50 [1]: > 68.4 µM (inactive)
GI50 [57]: 18 µM (inactive)
GI50 [2]: 17.2 µM (inactive)
GI50 [3]: 16.8 µM (inactive)
GI50 [4]: > 10 µM (inactive)
GI50 [5]: 18.1 µM (inactive)
GI50 [6]: 10 µM (inactive)
GI50 [7]: 3.2 µM (inactive)
GI50 [8]: 11.2 µM (inactive)
GI50 [9]: 22.3 µM (inactive)
GI50 [10]: 12.2 µM (inactive)
GI50 [11]: 2.88 µM (inactive)
GI50 [12]: 19.3 µM (inactive)
GI50 [13]: 4.14 µM (inactive)
GI50 [14]: 2.34 µM (inactive)
GI50 [58]: 13.2 µM (inactive)
GI50 [15]: 12.8 µM (inactive)
GI50 [16]: 20.1 µM (inactive)
GI50 [17]: 15.3 µM (inactive)
GI50 [52]: 19.5 µM (inactive)
GI50 [18]: 34.7 µM (inactive)
GI50 [19]: 47.4 µM (inactive)
GI50 [53]: 10.1 µM (inactive)
GI50 [20]: 2.9 µM (inactive)
GI50 [54]: 15.7 µM (inactive)
GI50 [21]: 40.6 µM (inactive)
GI50 [22]: 14.8 µM (inactive)
GI50 [55]: 16.3 µM (inactive)
GI50 [23]: 6.34 µM (inactive)
GI50 [24]: 18.8 µM (inactive)
GI50 [25]: 18.6 µM (inactive)
GI50 [26]: 28.8 µM (inactive)
GI50 [27]: 15.8 µM (inactive)
GI50 [28]: 13.9 µM (inactive)
GI50 [29]: 2.5 µM (inactive)
GI50 [56]: 24 µM (inactive)
GI50 [30]: 14.3 µM (inactive)
GI50 [31]: 11.7 µM (inactive)
GI50 [32]: 17.4 µM (inactive)
GI50 [33]: 10.9 µM (inactive)
GI50 [34]: 18.7 µM (inactive)
GI50 [35]: 13 µM (inactive)
GI50 [36]: 16 µM (inactive)
GI50 [37]: 3.7 µM (inactive)
GI50 [38]: 4.43 µM (inactive)
GI50 [39]: 16.6 µM (inactive)
GI50 [40]: 7.21 µM (inactive)
GI50 [41]: 6.15 µM (inactive)
GI50 [42]: 12.7 µM (inactive)
GI50 [44]: 17.5 µM (inactive)
GI50 [45]: 2.35 µM (inactive)
GI50 [59]: 2.88 µM (inactive)
GI50 [46]: 14.8 µM
GI50 [47]: 1.94 µM (inactive)
GI50 [48]: 23.9 µM (inactive)
GI50 [49]: 13.8 µM (inactive)
GI50 [50]: 16 µM (inactive)
GI50 [51]: 16.3 µM (inactive)
